The values that follow come from patent US12522593B2, “Azacycloalkyl carbonyl cyclic amine compound” (Alivexis, Inc., priority 2022, dated 2026).

One assay addresses human recombinant CTSC (Homo sapiens (Human), UniProt P53634). The assay is described as follows: CTSC inhibition assay (in vitro), fluorescent substrate GF-AFC. As to conditions: 30 μmol/L GF-AFC, pH 5.0, 25° C. It counts as biochemical. A digest of the protocol: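 Recombinant human CTSC pre-activated with cathepsin L (18° C, 30 min), then preincubated with compound 30 min at 25° C in pH 5.0 MES buffer with 5 mmol/L DTT (0.66 ng/mL CTSC, 0.15% DMSO). Cleavage of 30 μmol/L GF-AFC read after 1 h at 25° C (ex 390/em 505 nm); IC50 by 4-parameter fit.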

The next assay has as its target CTSC in U937 cells (Homo sapiens (Human), UniProt P53634). The assay is described as follows: Intracellular CTSC inhibition assay (in vitro), LLOMe-induced cell death in U937 cells. It counts as cell-based. Particulars: 3 hours culture, CellTiter-Glo. A digest of the protocol: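 U937 cells in RPMI-1640 with 10% FBS were preincubated 30 min with compound ([…], 3-fold dilutions). A 300 μmol/L LLOMe solution was then added, which drives CTSC-dependent cell death, and cells were cultured 3 h. Viability read by CellTiter-Glo luminescence; IC50 from 4-parameter fit.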

CTSC in U937 cells, sequence (P53634 25-463): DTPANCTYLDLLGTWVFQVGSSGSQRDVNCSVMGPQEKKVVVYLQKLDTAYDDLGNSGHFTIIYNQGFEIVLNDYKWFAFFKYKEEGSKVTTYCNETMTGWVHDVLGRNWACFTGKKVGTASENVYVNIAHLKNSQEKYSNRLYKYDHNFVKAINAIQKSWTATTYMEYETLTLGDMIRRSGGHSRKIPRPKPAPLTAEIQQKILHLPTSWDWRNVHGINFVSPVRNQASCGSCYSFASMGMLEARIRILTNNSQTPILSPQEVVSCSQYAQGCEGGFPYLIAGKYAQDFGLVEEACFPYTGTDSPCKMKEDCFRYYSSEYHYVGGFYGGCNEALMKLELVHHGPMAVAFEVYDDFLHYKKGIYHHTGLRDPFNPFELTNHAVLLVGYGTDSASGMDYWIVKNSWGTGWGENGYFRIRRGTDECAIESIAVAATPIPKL
human recombinant CTSC, sequence (P53634 25-134): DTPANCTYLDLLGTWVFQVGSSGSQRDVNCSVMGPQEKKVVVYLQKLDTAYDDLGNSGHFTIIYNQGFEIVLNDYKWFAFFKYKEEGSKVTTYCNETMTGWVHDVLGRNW
human recombinant CTSC, sequence (P53634 231-394): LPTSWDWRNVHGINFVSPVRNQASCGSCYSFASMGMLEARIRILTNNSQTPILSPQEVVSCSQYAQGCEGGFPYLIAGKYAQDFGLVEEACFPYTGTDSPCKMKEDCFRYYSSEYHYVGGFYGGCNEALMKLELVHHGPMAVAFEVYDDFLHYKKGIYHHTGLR
human recombinant CTSC, sequence (P53634 395-463): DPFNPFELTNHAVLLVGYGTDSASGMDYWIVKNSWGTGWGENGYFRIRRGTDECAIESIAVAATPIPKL

The term IC50 denotes the concentration needed to halve the response being measured. On to `Cc1ccc(C2(C(=O)NCC3CCC(F)(F)CC3)CCN(C(=O)[C@@H]3CC[C@@]4(CCO4)CN3)CC2)cc1` [Example 84], for which the IC50 at human recombinant CTSC came to 1.25 nM; against CTSC in U937 cells it was 1.92 nM.

Regarding `O=C([C@@H]1CC[C@@]2(CCO2)CN1)N1CCC(C(=O)NCC2CCC(F)(F)CC2)(C(F)(F)F)CC1` [Example 85], the IC50 on human recombinant CTSC stood at 2.51 nM; against CTSC in U937 cells it was 4.12 nM.

Take `CC(C)C1(c2noc(C3CCC(F)(F)CC3)n2)CCN(C(=O)[C@@H]2CC[C@@]3(CCO3)CN2)CC1` [Example 86]: the IC50 on human recombinant CTSC turned out to be 1.43 nM; at CTSC in U937 cells, 1.06 nM.

In the case of `O=C([C@@H]1CC[C@@]2(CCO2)CN1)N1CCC(c2ccc(F)cc2)(c2nnc(C3CCC(F)(F)CC3)o2)CC1` [Example 87], the values for the IC50 on human recombinant CTSC and against CTSC in U937 cells were 3.54 nM and 4.02 nM, respectively.

On to `O=C([C@@H]1C[C@@H](O)C2(CCC2)CN1)N1CCC(c2nnn(-c3ccc(F)cc3)n2)CC1` [Example 89, (4-(2-(4-Fluorophenyl)-2H-tetrazol-5-yl)piperidin-1-yl)((7S,9R)-9-hydroxy-6-azaspiro[3.5]nonan-7-yl)methanone], for which the IC50 on human recombinant CTSC came to 1.45 nM; at CTSC in U937 cells, 0.6 nM.

With `CC1(C)CN[C@H](C(=O)N2CCC(c3nnn(-c4ccc(F)cc4)n3)CC2)C[C@H]1O` [Example 90, (4-(2-(4-Fluorophenyl)-2H-tetrazol-5-yl)piperidin-1-yl)((2S,4R)-4-hydroxy-5,5-dimethylpiperidin-2-yl)methanone], the results for the IC50 on human recombinant CTSC and on CTSC in U937 cells were 4.34 nM and 0.54 nM, respectively.

As for `O=C([C@@H]1C[C@@H](O)C2(CCC2)CN1)N1CCC(c2ccnc(N3CCC(F)(F)CC3)c2)CC1` [Example 91], the IC50 on human recombinant CTSC was found to be 0.84 nM; against CTSC in U937 cells, 0.54 nM.

Turning to `O=C([C@@H]1C[C@@H](O)C2(CCC2)CN1)N1CCC(c2cnc(N3CCC(F)(F)CC3)s2)CC1` [Example 92], the 50% inhibitory concentration (IC50) was 2.76 nM on human recombinant CTSC and 3.62 nM against CTSC in U937 cells.

Turning to `O=C([C@@H]1C[C@@H](O)C2(CCC2)CN1)N1CCC(c2cnn(-c3ccc(F)cc3)c2)CC1` [Example 93], the IC50 came to 3.92 nM on human recombinant CTSC and 0.77 nM against CTSC in U937 cells.

As to `O=C([C@@H]1C[C@@H](O)C2(CCC2)CN1)N1CCC(c2nccc(N3CCC(F)(F)CC3)n2)CC1` [Example 94], the figures for the IC50 on human recombinant CTSC and at CTSC in U937 cells were 0.37 nM and 3.86 nM, respectively.

In the case of `O=C([C@@H]1C[C@@H](O)C2(CCC2)CN1)N1CCC(c2nnn(-c3ccc(F)cc3)n2)(C(F)(F)F)CC1` [Example 95], the IC50 stood at 3.02 nM at human recombinant CTSC and 0.2 nM on CTSC in U937 cells.

In the case of `O=C([C@@H]1C[C@@H](O)C2(CCC2)CN1)N1CCC(c2nnn(-c3ccc(F)c(F)c3)n2)CC1` [Example 96], the IC50 at human recombinant CTSC was determined as 1.89 nM; at CTSC in U937 cells, 0.37 nM.

`O=C([C@@H]1C[C@@H](O)C2(CCC2)CN1)N1CCC(c2nnn(C3CCC(F)(F)CC3)n2)CC1` [Example 97]: the IC50 on human recombinant CTSC was 1.79 nM; against CTSC in U937 cells, 3.26 nM.

As for `O=C([C@@H]1C[C@@H](O)C2(CCC2)CN1)N1CCC(c2cn(-c3ccc(F)cc3)nn2)CC1` [Example 98], the IC50 on human recombinant CTSC worked out at 4.15 nM; against CTSC in U937 cells, 3.8 nM.

Consider `O=C([C@@H]1C[C@@H](O)C2(CCC2)CN1)N1CCC(c2nccc(-n3cc(F)cn3)n2)CC1` [Example 99], for which the IC50 on human recombinant CTSC came out at 4.15 nM; at CTSC in U937 cells it was 1.12 nM.

As for `COc1cccc(-n2nnc(C3CCN(C(=O)[C@@H]4C[C@@H](O)C5(CCC5)CN4)CC3)n2)c1` [Example 100], the IC50 was determined as 5.4 nM at human recombinant CTSC and 3.48 nM at CTSC in U937 cells.

`O=C([C@@H]1C[C@@H](O)C2(CCC2)CN1)N1CCC(c2nccc(-c3ccc(F)cc3)n2)CC1` [Example 101]: the IC50 at human recombinant CTSC turned out to be 1.93 nM; against CTSC in U937 cells, 0.96 nM.

As to `O=C([C@@H]1C[C@@H](O)C2(CCC2)CN1)N1CCC(c2nnn(Cc3ccccc3)n2)CC1` [Example 102], the IC50 on human recombinant CTSC came out at 9.48 nM; against CTSC in U937 cells it was 9.46 nM.

Take `CC1(C)CN[C@H](C(=O)N2CCC(c3nnn(-c4ccc(F)c(F)c4)n3)CC2)C[C@H]1O` [Example 103]: the figures for the concentration for half-maximal inhibition (IC50) on human recombinant CTSC and on CTSC in U937 cells were 2.41 nM and 0.5 nM, respectively.

`O=C([C@@H]1C[C@@H](O)C2(CCC2)CN1)N1CCC(n2nnc(-c3ccc(F)cc3F)n2)CC1` [Example 104]: the IC50 at human recombinant CTSC came out at 1.46 nM; against CTSC in U937 cells, 0.61 nM.

On to `O=C([C@@H]1C[C@@H](O)C2(CCC2)CN1)N1CCC(n2nnc(-c3ccc(F)cn3)n2)CC1` [Example 105], for which the results for the concentration for half-maximal inhibition (IC50) at human recombinant CTSC and on CTSC in U937 cells were 2.53 nM and 3.97 nM, respectively.
